Test results reported in publication PMC8621101, “Inhibition of XPO-1 Mediated Nuclear Export through the Michael-Acceptor Character of Chalcones” (Pharmaceuticals, 2021).

Tests used:
HL-60 cells = assay: Cell proliferation assay (IncuCyte confluence), HL-60; assay type: cell-based; details: Homo sapiens; HL-60 acute myeloid leukemia; 72 h; mean of two independent experiments ± SEM; read-out: IC50 antiproliferative activity HL-60
Procedure: (§1) Cancer cell lines HCT-116, NCI-H460, HL-60, K-562 and Z-138 were acquired from the American Type Culture Collection (ATCC, Manassas, VA, USA). The DND-41 cell line was purchased from the Deutsche Sammlung von Mikroorganismen und Zellkulturen (DSMZ Leibniz-Institut, Brunswick, Germany), and the HAP-1 cell line was ordered from Horizon Discovery (Horizon Discovery Group, Water Beach, UK). All cell lines were cultured as recommended by the suppliers. Culture media were purchased from Gibco Life Technologies and supplemented with 10% fetal bovine serum (HyClone, GE Healthcare Life Sciences, Chicago, Illinois, USA).
(§2) Adherent cell lines HCT-116, NCI-H460 and Hap-1 cells were seeded at a density between 500 and 1500 cells per well in 384-well tissue culture plates (Greiner). After overnight incubation, cells were treated with different concentrations of the test compounds. Suspension cell lines HL-60, K-562, Z-138 and DND-41 were seeded at densities ranging from 2500 to 5500 cells per well in 384-well culture plates containing the test compounds at the same concentration points.

DND-41 cells = assay: Cell proliferation assay (IncuCyte confluence), DND-41; assay type: cell-based; details: DND41; DND-41 acute lymphoblastic leukemia; 72 h; mean of two independent experiments ± SEM; read-out: IC50 antiproliferative activity DND-41
Procedure: as §1, §2

[1] = target: T1, XPO1^C528S (Jurkat XPO1^C528S) (Homo sapiens, UniProt O14980, C528S); assay: RanBP1 immunofluorescence (XPO1-mediated nuclear export) in mutant XPO1^C528S Jurkat cells; assay type: cell-based; details: positive control at 1 μM, 3 h
T1 construct: CRISPR/Cas9 genome editing of the Jurkat cell line was performed as in Neggers et al. [43] to generate a XPO1^C528S mutant cell line; endogenous in cells; host or cells: Jurkat cells genome-edited by CRISPR/Cas9 at the XPO1 locus (XPO1^C528S)
Procedure: (§3) The effect of the mutation on the activity of the inhibitors was assessed by the visualization of the subcellular localization of the XPO1 cargo RanBP1.
(§4) Stably transfected HeLa NLSSV40-AcGFP-NESPKI were cultured as described in Vercruysse et al.
(§5) Cells were harvested at 400× g, washed in PBS and then transferred into an 8-well µ-Slide (Ibidi) pretreated with 0.1% (w/v) poly-L-lysine (Sigma). Cells were allowed to adhere to the slides and then subsequently fixed (4% PFA in PBS), washed and permeabilized (0.2% Triton X-100 in PBS). Further immunofluorescence staining was then performed according to standard procedures. Employed antibodies were rabbit anti-RanBP1 (ab97659, Abcam, Cambridge, UK) at a 1:500 dilution and secondary Alexa Fluor 488 goat anti-rabbit antibody (A11008, Invitrogen, ThermoFisher Scientific). Cell nuclei were counterstained with DAPI, and the samples were imaged by confocal microscopy on a Leica TCS SP5 confocal microscope (Leica Microsystems, Weitzlar, Germany), employing a HCX PL APO 63× (NA 1.2) water immersion objective. Subsequently, fluorescence was read on an ArrayScan XTI High Content Reader (Thermo Fisher Scientific, Waltham, MA, USA). Nuclear and cytoplasmic compartments were segmented, and their average pixel intensities in the green channel were quantitated similarly as for the XPO1 phenotypic reporter assay.

HCT-116 cells = assay: Cell proliferation assay (IncuCyte confluence), HCT-116; assay type: cell-based; details: Homo sapiens; HCT-116 colorectal carcinoma; 72 h; mean of two independent experiments ± SEM; read-out: IC50 antiproliferative activity HCT-116
Procedure: as §1, §2

Z-138 cells = assay: Cell proliferation assay (IncuCyte confluence), Z-138; assay type: cell-based; details: Homo sapiens; Z-138 non-Hodgkin lymphoma; 72 h; mean of two independent experiments ± SEM; read-out: IC50 antiproliferative activity Z-138
Procedure: as §1, §2

K-562 cells = assay: Cell proliferation assay (IncuCyte confluence), K-562; assay type: cell-based; details: Homo sapiens, K562; K-562 chronic myeloid leukemia; 72 h; mean of two independent experiments ± SEM; read-out: IC50 antiproliferative activity K-562
Procedure: as §1, §2

Hap-1 cells = assay: Cell proliferation assay (IncuCyte confluence), Hap-1; assay type: cell-based; details: Homo sapiens, HAP1; Hap-1 chronic myeloid leukemia; 72 h; mean of two independent experiments ± SEM; read-out: IC50 antiproliferative activity Hap-1
Procedure: as §1, §2

NCI-H460 cells = assay: Cell proliferation assay (IncuCyte confluence), NCI-H460; assay type: cell-based; details: Homo sapiens; NCI-H460 lung carcinoma; 72 h; mean of two independent experiments ± SEM; read-out: IC50 antiproliferative activity NCI-H460
Procedure: as §1, §2

XPO1 (Jurkat XPO1^WT) = target: T2, XPO1 (Jurkat XPO1^WT) (Homo sapiens, UniProt O14980); assay: RanBP1 immunofluorescence (XPO1-mediated nuclear export) in wild-type Jurkat cells; assay type: cell-based; details: positive control at 1 μM, 3 h
T2 construct: RanBP1 immunofluorescence staining was performed on both wild type and mutant XPO1^C528S Jurkat cells; endogenous in cells; host or cells: wild-type Jurkat leukemia cells
Procedure: as §3, §4, §5

[2] = Stability in phosphate-buffered solution (PBS); assay type: physicochemical
From the text: It has been described by performing kinetic measurements in α-X-2′3,4,4’-tetramethylchalcones that the nature of the substituent at position α of the chalcone affects their reactivity as electrophiles versus thiol groups. In such series, the α-COOEt substituent led to a similar reactivity as that of the α-H chalcone; the α-CH3 chalcone was poorly electrophilic, while the α-CN chalcone was the most electrophilic. Thus, in the naphthyl series (Figure 3), the synthesis of the chalcones where R1 = H, COOCH3, CH3 or CN was accomplished. The reaction of 1-(naphthalen-2-yl)ethan-1-one (11) with pyrimidine-5-carbaldehyde in the presence of Ba(OH)2 afforded α-H chalcone 9 in a 55% yield (Scheme 1). […] Reaction of the ester 12 with NH3/dioxane at 110 °C [29] led to the amide 14 that was further transformed into the chalcone 15. On the other hand, reaction of naphthalene 16 with propionyl chloride under Friedel–Crafts acylation conditions, as described, provided the 2-acyl derivative 17, together with a small proportion of its 1-isomer. This mixture of isomers reacted with pyrimidine-5-carbaldehyde to yield the α-CH3 chalcone 18 (30%). Finally, the synthesis of the α-CN derivative was addressed by the reaction of 2-methylnaphthoate (19) with acetonitrile to provide 3-oxopropanenitrile 20 [32], which was further transformed into the α-CN chalcone 21.

T1 sequence (O14980 whole entry C528S): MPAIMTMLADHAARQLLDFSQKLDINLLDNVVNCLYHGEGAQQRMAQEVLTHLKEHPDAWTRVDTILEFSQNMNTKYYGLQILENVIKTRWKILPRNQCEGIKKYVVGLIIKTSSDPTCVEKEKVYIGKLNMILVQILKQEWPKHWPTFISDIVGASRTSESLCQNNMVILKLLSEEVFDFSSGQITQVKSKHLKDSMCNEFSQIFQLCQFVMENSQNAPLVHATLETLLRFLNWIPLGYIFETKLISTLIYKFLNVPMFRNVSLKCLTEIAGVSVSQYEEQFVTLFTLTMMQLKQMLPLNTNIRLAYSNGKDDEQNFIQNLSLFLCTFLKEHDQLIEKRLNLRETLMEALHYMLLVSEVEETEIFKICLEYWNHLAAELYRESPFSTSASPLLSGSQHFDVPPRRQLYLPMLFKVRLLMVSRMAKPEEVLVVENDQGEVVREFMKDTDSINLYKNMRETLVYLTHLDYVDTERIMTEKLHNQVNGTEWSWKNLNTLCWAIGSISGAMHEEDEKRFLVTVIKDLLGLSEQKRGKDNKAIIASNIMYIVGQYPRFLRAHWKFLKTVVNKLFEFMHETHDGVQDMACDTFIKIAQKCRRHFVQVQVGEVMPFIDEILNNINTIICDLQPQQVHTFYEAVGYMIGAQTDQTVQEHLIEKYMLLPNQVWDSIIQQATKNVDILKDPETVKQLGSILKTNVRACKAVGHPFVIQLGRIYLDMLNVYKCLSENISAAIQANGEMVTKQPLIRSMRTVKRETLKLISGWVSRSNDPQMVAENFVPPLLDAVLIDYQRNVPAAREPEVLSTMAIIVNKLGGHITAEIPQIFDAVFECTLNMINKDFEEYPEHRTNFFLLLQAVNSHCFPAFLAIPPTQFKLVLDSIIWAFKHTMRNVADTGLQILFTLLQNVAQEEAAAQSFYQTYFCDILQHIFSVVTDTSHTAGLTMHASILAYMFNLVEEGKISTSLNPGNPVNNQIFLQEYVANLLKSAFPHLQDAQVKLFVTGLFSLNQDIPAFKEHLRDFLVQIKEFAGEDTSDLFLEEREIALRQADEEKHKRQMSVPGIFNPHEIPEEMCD

Row | SMILES | IC50 (HL-60 cells) [nM] | IC50 (DND-41 cells) [nM] | Subcellular localization of RanBP1, mutant XPO1^C528S Jurkat [1] | IC50 (HCT-116 cells) [nM] | IC50 (Z-138 cells) [nM] | IC50 (K-562 cells) [nM] | IC50 (Hap-1 cells) [nM] | IC50 (NCI-H460 cells) [nM] | Subcellular localization of RanBP1, wild-type Jurkat (XPO1 (Jurkat XPO1^WT)) | Stability in PBS [2]
1 | O=C(/C=C\n1cnc(-c2cc(C(F)(F)F)cc(C(F)(F)F)c2)n1)NNc1cnccn1 [KPT-330, selinexor, reference compound] | 110 ± 100 | 50 | RanBP1 remained in the cytoplasm | 100 ± 100 | 400 ± 400 | 90 | 70 ± 30 | 120 ± 80 | RanBP1 was accumulated in the nucleus | –
2 | N#C/C(=C\c1cncnc1)C(=O)c1ccc2ccccc2c1 [Compound 21, (E)-2-Cyano-1-(naphthalene-2-yl)-3-(pyrimidin-5-yl)prop-2-en-1-one] | – | – | – | – | – | – | – | – | – | very unstable and readily decomposed
